Data on 57 molecules can be found in patent US7179832B2, “Glycogen synthase kinase 3β inhibitor, composition and process for the preparation thereof” (Crystalgenomics, Inc., priority 2003, dated 2007).

The term IC50 denotes the point on the concentration scale where inhibition reaches its midpoint.

The structures appear in SMILES notation. Where two headings read alike, the source gives them in different places. A value given as a limit tells only on which side of the number the result lay.

This test has as its target GSK-3β (Homo sapiens, UniProt P49841). Put plainly: Assay for GSK-3β inhibiting activity (32P-ATP, phospho-CREB peptide substrate, filter paper, CPM). The test is classed as biochemical. The method, then: Assay for GSK-3β inhibiting activity
First, PCR (polymerase chain reaction) was carried out using human DNA as a template as well as primers which were designed to correspond to the 3′- and 5′ ends of the polynucleotide coding human GSK-3β gene (Genbank Accession No.: L33801). The BamH1/XhoI fragment of the amplified PCR product thus obtained was inserted into the pGex vector between the BamH1 and XhoI sites, and the vector obtained was transformed into E. coli BL21(DE3). The transformed cells thus obtained was incubated in […] (1% Bacto-trypton, 0.5% yeast extract, 1% NaCl) containing ampicillin ([…]) until the optical density at 600 nm reached about 0.5. The cultured mixture was cooled to 18° C. and isopropyl β-D-thiogalacto-pyranoside (IPTG) was added thereto to a final concentration of 0.5 mM. After 16 hours, the resultant was centrifuged at 10,000×g for 10 min, the collected cells were suspended in a buffer solution (30 mM Tris-HCl (pH 7.5), 100 mM NaCl, 5% glycerol, 2 mM DTT) and the cells were disrupted using Sonic Dismembrator (Fisher, U.S.A.) in a ice bath. The resulting solution was centrifuged at 16,000 rpm for 30 minutes. […] The purified GSK-3β protein was diluted in a buffer solution (20 mM HEPES (pH 7.5), 5% glycerol, 2 mM DTT) to a final concentration of 50 mM NaCl and the resulting solution was subjected to mono S column chromatography (eluent: linear gradient from 0M to 1M NaCl buffer) using mono S column (Pharmacia Biotech, U.S.A.) equilibrated in the same buffer solution to obtain GSK-3β protein.
The reaction was stopped by adding 5 μl of 5% phosphoric acid to 25 μl of the resulting solution. The resulting mixture was centrifuged at 15,000 rpm for 10 min, 20 μl of the supernatant was added dropwise to Whatman p81 filter paper, and then, the resulting filter paper was washed with 0.5% phosphate buffer for 10 min. The filter paper was further washed 3 times and the enzymatic activity was determined by examining the extent of phospho-CREB peptide phosphorylation which is represented by the unit of count per minute (CPM), measured with a β-counter (Packard, USA).
The GSK-3β inhibiting activity was then calculated in accordance with the following equation:
[formula] wherein the blank represents a value obtained without the use of the enzyme and the compound of the present invention, and the control, in the absence of the compound of the present invention.

Where [1] appears, read: GSK-3β inhibiting activity, 100 nM GSK-3β protein, 100 μM phospho-CREB peptide, 100 μM ATP, 30° C. for 1 hour, read-out: IC50.

GSK-3β, sequence (P49841 whole entry, the tested form may be a part): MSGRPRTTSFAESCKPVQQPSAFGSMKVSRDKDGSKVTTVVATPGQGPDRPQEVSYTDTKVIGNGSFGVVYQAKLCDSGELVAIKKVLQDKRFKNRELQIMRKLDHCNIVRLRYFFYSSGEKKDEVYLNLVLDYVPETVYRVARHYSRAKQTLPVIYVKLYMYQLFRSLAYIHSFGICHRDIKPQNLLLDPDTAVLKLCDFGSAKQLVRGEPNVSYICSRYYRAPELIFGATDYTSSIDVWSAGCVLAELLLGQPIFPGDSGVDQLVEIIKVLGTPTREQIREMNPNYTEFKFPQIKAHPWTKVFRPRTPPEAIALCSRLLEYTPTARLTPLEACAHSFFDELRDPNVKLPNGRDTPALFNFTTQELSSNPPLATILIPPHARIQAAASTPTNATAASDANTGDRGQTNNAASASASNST

Take `NC(=O)c1ccc(O)c2[nH]c(-c3ccccc3)nc12` [Compound 1, 7-hydroxy-2-phenyl-1H-benzoimidazole-4-carboxylic acid amide]: the IC50 under setting [1] is above 1 µM.
The same measure, in the same setting: for `Nc1ccc(NC(=O)c2ccc(O)c3[nH]c(-c4ccccc4)nc23)cc1` [Compound 4] the value was above 1 µM.
On the same count and under the same terms, for `O=C(NC1CCC(O)CC1)c1ccc(O)c2[nH]c(-c3ccccc3)nc12` (stereo not drawn) [Compound 5] the value was 0.3 µM.
On the same count and under the same terms, for `O=C(Nc1ccc(CO)cc1)c1ccc(O)c2[nH]c(-c3ccccc3)nc12` [Compound 6] the value was above 1 µM; for `NCCc1ccc(NC(=O)c2ccc(O)c3[nH]c(-c4ccccc4)nc23)cc1` [Compound 8], above 1 µM.
Consider `Cc1ccc(S(=O)(=O)NCCc2ccc(NC(=O)c3ccc(O)c4[nH]c(-c5ccccc5)nc34)cc2)cc1` [Compound 9], for which the 50% inhibitory concentration (IC50) under setting [1] turned out to be 0.18 µM.
Same read-out and setting: for `CS(=O)(=O)NCCc1ccc(NC(=O)c2ccc(O)c3[nH]c(-c4ccccc4)nc23)cc1` [Compound 10] the value was 0.04 µM.
The same measure, in the same setting: for `O=C(Nc1ccc(CCN2C(=O)c3ccccc3C2=O)cc1)c1ccc(O)c2[nH]c(-c3ccccc3)nc12` [Compound 11] the value was above 5 µM.
The same measure, in the same setting: for `O=C(Nc1ccc(CCNS(=O)(=O)c2cccs2)cc1)c1ccc(O)c2[nH]c(-c3ccccc3)nc12` [Compound 12] the value was 0.2 µM; for `CCS(=O)(=O)NCCc1ccc(NC(=O)c2ccc(O)c3[nH]c(-c4ccccc4)nc23)cc1` [Compound 13], 0.36 µM.
In the case of `O=C(Nc1ccccc1)c1ccc(O)c2[nH]c(-c3ccc(Cl)cc3)nc12` [Compound 14], the IC50 under setting [1] was above 1 µM.
Same read-out and setting: for `O=C(NC1CCC(O)CC1)c1ccc(O)c2[nH]c(-c3ccc(Cl)cc3)nc12` (stereo not drawn) [Compound 15] the value was 0.11 µM.
For `Cc1ccc(S(=O)(=O)NCCc2ccc(NC(=O)c3ccc(O)c4[nH]c(-c5ccc(Cl)cc5)nc34)cc2)cc1` [Compound 16], the IC50 under setting [1] came to 0.7 µM.
On the same count and under the same terms, for `CS(=O)(=O)NCCc1ccc(NC(=O)c2ccc(O)c3[nH]c(-c4ccc(Cl)cc4)nc23)cc1` [Compound 17] the value was 0.24 µM; for `O=C(Nc1ccc(CCN2C(=O)c3ccccc3C2=O)cc1)c1ccc(O)c2[nH]c(-c3ccc(Cl)cc3)nc12` [Compound 18], above 1 µM; for `O=C(Nc1ccc(CCNS(=O)(=O)c2cccs2)cc1)c1ccc(O)c2[nH]c(-c3ccc(Cl)cc3)nc12` [Compound 19], above 1 µM.
Same read-out and setting: for `CCS(=O)(=O)NCCc1ccc(NC(=O)c2ccc(O)c3[nH]c(-c4ccc(Cl)cc4)nc23)cc1` [Compound 20] the value was 4.1 µM.
The same measure, in the same setting: for `O=C(Nc1ccccc1)c1ccc(O)c2[nH]c(-c3ccc(Cl)cc3Cl)nc12` [Compound 22] the value was above 1 µM.
With `O=C(NC1CCC(O)CC1)c1ccc(O)c2[nH]c(-c3ccc(Cl)cc3Cl)nc12` (stereo not drawn) [Compound 23], under setting [1], the IC50 is 0.68 µM.
On the same count and under the same terms, for `NCCc1ccc(NC(=O)c2ccc(O)c3[nH]c(-c4ccc(Cl)cc4Cl)nc23)cc1` [Compound 24] the value was above 5 µM; for `Nc1ccc(NC(=O)c2ccc(O)c3[nH]c(-c4ccc(Cl)cc4Cl)nc23)cc1` [Compound 25], above 1 µM; for `O=C(Nc1ccc(CO)cc1)c1ccc(O)c2[nH]c(-c3ccc(Cl)cc3Cl)nc12` [Compound 26], above 1 µM.
The same measure, in the same setting: for `O=C(Nc1ccc(CCO)cc1)c1ccc(O)c2[nH]c(-c3ccc(Cl)cc3Cl)nc12` [Compound 27] the value was above 1 µM; for `Cc1ccc(S(=O)(=O)NCCc2ccc(NC(=O)c3ccc(O)c4[nH]c(-c5ccc(Cl)cc5Cl)nc34)cc2)cc1` [Compound 28], 0.74 µM.
As to `CS(=O)(=O)NCCc1ccc(NC(=O)c2ccc(O)c3[nH]c(-c4ccc(Cl)cc4Cl)nc23)cc1` [Compound 29], under “IC50 (μM)”, the IC50 came out at 0.08 µM.
Take `O=C(Nc1ccc(CCN2C(=O)c3ccccc3C2=O)cc1)c1ccc(O)c2[nH]c(-c3ccc(Cl)cc3Cl)nc12` [Compound 30]: under setting [1], the half-maximal inhibitory concentration (IC50) was above 1 µM.
Same read-out and setting: for `O=C(Nc1ccc(CCNS(=O)(=O)c2cccs2)cc1)c1ccc(O)c2[nH]c(-c3ccc(Cl)cc3Cl)nc12` [Compound 31] the value was above 1 µM; for `CCS(=O)(=O)NCCc1ccc(NC(=O)c2ccc(O)c3[nH]c(-c4ccc(Cl)cc4Cl)nc23)cc1` [Compound 32], 0.5 µM.
The same measure, in the same setting: for `CS(=O)(=O)NCCc1ccc(NC(=O)c2ccc(O)c3[nH]c(-c4ccc(F)cc4)nc23)cc1` [Compound 33] the value was above 1 µM.
Same read-out and setting: for `Cc1ccc(S(=O)(=O)NCCc2ccc(NC(=O)c3ccc(O)c4[nH]c(-c5ccc(F)cc5)nc34)cc2)cc1` [Compound 34] the value was above 1 µM; for `CCS(=O)(=O)NCCc1ccc(NC(=O)c2ccc(O)c3[nH]c(-c4ccc(F)cc4)nc23)cc1` [Compound 35], 0.007 µM; for `O=C(Nc1ccc(N2CCOCC2)cc1)c1ccc(O)c2[nH]c(-c3ccc(F)cc3)nc12` [Compound 36], above 1 µM.
On to `CS(=O)(=O)NCCc1ccc(NC(=O)c2ccc(O)c3[nH]c(-c4ccc(F)cc4F)nc23)cc1` [Compound 37], for which the IC50 under setting [1] is above 1 µM.
The same measure, in the same setting: for `Cc1ccc(S(=O)(=O)NCCc2ccc(NC(=O)c3ccc(O)c4[nH]c(-c5ccc(F)cc5F)nc34)cc2)cc1` [Compound 38] the value was above 1 µM.
On the same count and under the same terms, for `CCS(=O)(=O)NCCc1ccc(NC(=O)c2ccc(O)c3[nH]c(-c4ccc(F)cc4F)nc23)cc1` [Compound 39] the value was above 1 µM; for `Cc1ccc(S(=O)(=O)NCCc2ccc(NC(=O)c3ccc(O)c4[nH]c(-c5ccc(F)cc5Cl)nc34)cc2)cc1` [Compound 40], above 1 µM; for `CS(=O)(=O)NCCc1ccc(NC(=O)c2ccc(O)c3[nH]c(-c4ccc(F)cc4Cl)nc23)cc1` [Compound 41], above 1 µM.
Take `CCS(=O)(=O)NCCc1ccc(NC(=O)c2ccc(O)c3[nH]c(-c4ccc(F)cc4Cl)nc23)cc1` [Compound 42]: under setting [1], the concentration for half-maximal inhibition (IC50) is above 1 µM.
The same measure, in the same setting: for `Cc1ccc(S(=O)(=O)NCCc2ccc(NC(=O)c3ccc(O)c4[nH]c(-c5ccc(F)c(Cl)c5)nc34)cc2)cc1` [Compound 43] the value was above 1 µM; for `CCS(=O)(=O)NCCc1ccc(NC(=O)c2ccc(O)c3[nH]c(-c4ccc(F)c(Cl)c4)nc23)cc1` [Compound 44], above 1 µM.
On the same count and under the same terms, for `CS(=O)(=O)NCCc1ccc(NC(=O)c2ccc(O)c3[nH]c(-c4ccc(F)c(Cl)c4)nc23)cc1` [Compound 45] the value was 0.02 µM.
Still for that read-out and setting: for `O=C(c1ccc(O)c2[nH]c(-c3ccc(Cl)cc3Cl)nc12)N1CCCCC1` [Compound 48] the value was above 5 µM; for `O=C(NCc1ccc([N+](=O)[O-])cc1)c1ccc(O)c2[nH]c(-c3ccccc3)nc12` [Compound 49], 0.6 µM.
Regarding `Nc1ccc(CNC(=O)c2ccc(O)c3[nH]c(-c4ccccc4)nc23)cc1` [Compound 50], the IC50 under setting [1] stood at 0.6 µM.
On the same count and under the same terms, for `O=C(NCc1ccccc1)c1ccc(O)c2nc(-c3ccccc3)[nH]c12` [Compound 51] the value was 0.87 µM.
The same measure, in the same setting: for `O=C(NCc1ccccc1)c1ccc(O)c2[nH]c(-c3ccc(Cl)cc3)nc12` [Compound 52] the value was above 1 µM; for `O=C(NCc1ccc([N+](=O)[O-])cc1)c1ccc(O)c2[nH]c(-c3ccc(Cl)cc3)nc12` [Compound 53], above 1 µM.
Take `Nc1ccc(CNC(=O)c2ccc(O)c3[nH]c(-c4ccc(Cl)cc4)nc23)cc1` [Compound 54]: the IC50 under setting [1] is above 1 µM.
The same measure, in the same setting: for `O=C(NCc1ccccc1)c1ccc(O)c2[nH]c(-c3ccc(Cl)cc3Cl)nc12` [Compound 55] the value was above 1 µM; for `O=C(NCc1ccc([N+](=O)[O-])cc1)c1ccc(O)c2[nH]c(-c3ccc(Cl)cc3Cl)nc12` [Compound 56], 0.7 µM; for `O=C(NCCc1ccccc1)c1ccc(O)c2nc(-c3ccccc3)[nH]c12` [Compound 57], 0.58 µM.
For `O=C(NCCc1ccc(O)cc1)c1ccc(O)c2[nH]c(-c3ccccc3)nc12` [Compound 58], under setting [1], the half-inhibitory concentration (IC50) worked out at 0.67 µM.
`O=C(NCCc1ccc([N+](=O)[O-])cc1)c1ccc(O)c2[nH]c(-c3ccccc3)nc12` [Compound 59]: the concentration for half-maximal inhibition (IC50) under setting [1] turned out to be 0.16 µM.
On the same count and under the same terms, for `Nc1ccc(CCNC(=O)c2ccc(O)c3nc(-c4ccccc4)[nH]c23)cc1` [Compound 60] the value was 0.35 µM.
On the same count and under the same terms, for `NCCNC(=O)c1ccc(O)c2[nH]c(-c3ccccc3)nc12` [Compound 61] the value was above 1 µM.
As to `COc1cc(CCNC(=O)c2ccc(O)c3[nH]c(-c4ccccc4)nc23)ccc1O` [Compound 62], the IC50 under setting [1] was above 1 µM.
With `COc1ccc(CCNC(=O)c2ccc(O)c3[nH]c(-c4ccccc4)nc23)cc1O` [Compound 63], the IC50 under setting [1] stood at 0.45 µM.
